Values of other authors in patent publication US12048769B2, “Methods for administering weight loss medications” (priority 2006, dated 2024).

How the values were obtained:
[1] = in vivo
[2] = in vivo; remark: listed apart in the source
[3] = system: patients presenting primary obesity; conditions: comparable to marketed weight loss medications

Q: Which results are given for CNCCC(Oc1ccc(C(F)(F)F)cc1)c1ccccc1 (stereo not drawn) [Fluoxetine, N-methyl-3-phenyl-3-[4-(trifluoromethyl)phenoxy]-propan-1-amine]?
A: physiological half life [1]: about 24 hours; bioavailability (in vivo): approximately 72%; time to complete excretion (in vivo): several weeks; plasma protein binding (mostly albumin): highly bound; elimination half-life in liver disease (those with liver disease): prolonged

Q: Which “effect of food on bioavailability” value [2] does the source give for Cc1cc2c(s1)Nc1ccccc1N=C2N1CCN(C)CC1 [Olanzapine, 2-methyl-4-(4-methyl-1-piperazinyl)-10H-thieno[2,3-b][1,5]benzodiazepine] here?
A: not affected by food

Q: What about the first pass metabolism [2] of the same molecule?
A: extensive first pass metabolism

Q: And the kinetics [2]?
A: linear kinetics

Q: And the “time to steady state plasma concentrations” value [2]?
A: about a week

Q: Which weight loss [3] does the source give for NS(=O)(=O)Cc1noc2ccccc12 [Zonisamide] here?
A: significant weight loss

Q: What about the “inhibitory effect on carbonic anhydrase” value (carbonic anhydrase) of the same molecule?
A: weak inhibitory effect

Q: With NCCC(Oc1ccc(C(F)(F)F)cc1)c1ccccc1 (stereo not drawn) [norfluoxetine] as the molecule, how does the elimination half-life (after long-term use, healthy adults) read?
A: 16 days
